Measured values from patent publication US8232448B2, “Transgenic mouse with a homozygous mutation in the CMAH gene” (The Regents of the University of California, priority 2005, dated 2012).

What was measured:
[1] = system: Caco-2 cells; assay: Endocytosis inhibition experiments (Neu5Gc incorporation); format: cell-based, human; conditions: Caco-2, 2 h pre-treatment with drug, then 3 mM Neu5Gc
Method: The sonicate was centrifuged at 75×g for 15 min., and the pellet Obtained consisted primarily of nuclei and unbroken cells. […] A portion (20%) of the “total homogenate” fraction was taken for protein quantification and Sia analysis by DMB derivatization and HPLC analysis (as discussed below.) The remainder was centrifuged at 100,000×g for 1 h. The resulting pellet, called the “membrane” fraction, was then resuspended by sonication (15 sec.) in 200 μl of sodium acetate buffer, pH 5.5. The 100,000×g supernatant, called the “soluble” fraction was adjusted to 90% ethanol using absolute ice-cold ethanol, and placed overnight at −20° C. The flocculant precipitate, which represents the “soluble protein” fraction, was washed 3 times with 90%® ice-cold ethanol and then resuspended in 200 μl of water. The supernatant fluid representing the cytosolic low molecular weight (LMW) fraction was dried and brought up in 100 μL with water prior to Sia analysis. All the Sias in these fractions were released with mild acid hydrolysis if necessary and then analyzed by HPLC after DMB derivatization. Protein quantification was performed on the total homogenate, membrane and soluble protein fractions by using the BCA protein assay kit from Pierce (Rockford, Ill.) In some experiments, the resulting data obtained for the Sia bound to the membrane fraction and to the soluble proteins were pooled and presented here as a High Molecular Weight (HMW) fraction. Sialic Acid Release, DMB Derivatization and HPLC Analysis—The bound Sias from the total homogenate, membrane and soluble protein fractions were released using 2M acetic acid hydrolysis, 3 h. at 80° C. The released Sias, or free Sias, contained in the soluble LMW fraction were passed through a Microcon® YM-10 filter (Millipore, Bedford, Mass.) prior to DMB derivatization, which was done according to Hara et al., 1989. […] The eluant was monitored by fluorescence. Quantification of Sias—For all HPLC chromatograms, the quantification of Sias was done by comparison with known quantities of DMB derivatized Neu5Gc and Neu5Ac used as standards and then reported in terms of pmoles of Sia. For total homogenate, membrane and cytosolic protein fractions, this number was expressed per mg of protein. Due to minor sample-to-sample variations in amounts and recoveries, the data in the Figures is presented as percent of Neu5Gc over total Sias, rather than as absolute amounts. Endocytosis Inhibition Experiments—Caco-2 or normal fibroblast cells were split and cultured in alpha-MEM media supplemented respectively with 20% or 15% human serum for 4 days before starting the endocytosis drug inhibition experiments in order to deplete any Neu5Gc derived from FCS. Cells were then pre-treated for 2 h. with the specific inhibitors under the same culture conditions. Fresh media containing the same amount of inhibitor and 3 mM of Neu5Gc was then added to the cells, which were incubated for 16 h or 3 days and finally harvested and fractionated as described above.

[2] = system: normal human skin fibroblasts; assay: Neu5Gc/ManNGc feeding experiment, normal (WT) fibroblasts, DMB-HPLC; format: cell-based; conditions: for percent of Neu5Gc in membrane-bound glycoconjugates: normal wild-type (WT) fibroblasts, fed 3 mM for 3 days
Method: (§1) Neu5Gc and ManNGc Feeding Experiment—Neu5Ac, Neu5Gc or ManNGc were dried, dissolved in the appropriate media supplemented with heat-inactivated human serum, sterilized using a Spin-X® (Corning Inc., Corning, N.Y.) and then added to the cells. The pH of the media containing Sia was adjusted to neutrality using sterilized 1M NaOH before starting the feeding experiment. Cells were cultured in the presence of up to 3 mM free Sia or ManNGc for 1 or 3 days at 37° C. At the end of the feeding, cells were washed with cold PBS, harvested either by scraping or with 2 mM EDTA for fibroblasts, and washed again with cold PBS prior to fractionation.
Fractionation of the Labeled Cells—Washed cell pellets were sonicated into 500 μL of 20 mM sodium phosphate buffer or 20 mM Tris-HCl, pH 7.5, using 4×15 second pulses of a sonicator cell disrupter, model Some Dismembrator (Fisher Scientific, Hampton, N.J.) at a probe setting of 3. The sonicate was centrifuged at 75×g for 15 min., and the pellet Obtained consisted primarily of nuclei and unbroken cells. The pellet contained <5% of the incorporated sialic acid as determined using a radioactive tracer (data not shown.) The supernatant was therefore considered as the “total homogenate” fraction. A portion (20%) of the “total homogenate” fraction was taken for protein quantification and Sia analysis by DMB derivatization and HPLC analysis (as discussed below.) The remainder was centrifuged at 100,000×g for 1 h. The resulting pellet, called the “membrane” fraction, was then resuspended by sonication (15 sec.) in 200 μl of sodium acetate buffer, pH 5.5. The 100,000×g supernatant, called the “soluble” fraction was adjusted to 90% ethanol using absolute ice-cold ethanol, and placed overnight at −20° C. The flocculant precipitate, which represents the “soluble protein” fraction, was washed 3 times with 90%® ice-cold ethanol and then resuspended in 200 μl of water. The supernatant fluid representing the cytosolic low molecular weight (LMW) fraction was dried and brought up in 100 μL with water prior to Sia analysis. All the Sias in these fractions were released with mild acid hydrolysis if necessary and then analyzed by HPLC after DMB derivatization. Protein quantification was performed on the total homogenate, membrane and soluble protein fractions by using the BCA protein assay kit from Pierce (Rockford, Ill.) In some experiments, the resulting data obtained for the Sia bound to the membrane fraction and to the soluble proteins were pooled and presented here as a High Molecular Weight (HMW) fraction.
Sialic Acid Release, DMB Derivatization and HPLC Analysis—The bound Sias from the total homogenate, membrane and soluble protein fractions were released using 2M acetic acid hydrolysis, 3 h. at 80° C. The released Sias, or free Sias, contained in the soluble LMW fraction were passed through a Microcon® YM-10 filter (Millipore, Bedford, Mass.) prior to DMB derivatization, which was done according to Hara et al., 1989. DMB-Sia derivatives from the different fractions were then analyzed by HPLC using a C18 column (Microsorb MV-TM 100 A, Varian, Palo Alto, Calif.) Isocratic elution was achieved using 7% methanol, 8% acetonitrile in water during 50 min. at 0.9 ml/min flow. The eluant was monitored by fluorescence.
Quantification of Sias—For all HPLC chromatograms, the quantification of Sias was done by comparison with known quantities of DMB derivatized Neu5Gc and Neu5Ac used as standards and then reported in terms of pmoles of Sia. […]

[3] = system: human LB EBV-transformed lymphoblasts; assay: Neu5Gc/Neu5Ac feeding experiment, human lymphoblasts; format: cell-based
Method: Cell Culture—Caco-2 cells were propagated in alpha-MEM containing GLUTAMAX™ (Invitrogen, San Diego, Calif.) and a mixture of ribonucleosides and deoxyribonucleosides (Gibco/Invitrogen, San Diego, Calif.) supplemented with 20% FCS. All the fibroblast cell lines and CHO-K1 cells were cultured in the same media supplemented respectively with 15% non-heat inactivated FCS or 10% heat inactivated FCS. Chimpanzee Fred and human LB EBV-transformed lymphoblasts were cultured in RPMI-1640 (Gibco/Invitrogen, San Diego, Calif.) supplemented with 10% heat inactivated FCS or 15% human serum. All of the cultures were maintained at 37° C., 5% CO2 atmosphere. In order to deplete any remaining Neu5Gc from FCS, the cells were split and cultured prior to Neu5Gc feeding experiments for at least 4 days in alpha-MEM supplemented with an adequate percentage of heat-inactivated premium human serum instead of FCS. The cells were then maintained under the same conditions during the whole feeding experiment. The human serum was heat inactivated at 56° C. for 30 min. before use.
as §1, with “At the end of the feeding, cells were washed with cold PBS, harvested either by scraping or with 2 mM EDTA for fibroblasts, and washed again with cold PBS prior to fractionation.” left out
Fractionation of the Labeled Cells—Washed cell pellets were sonicated into 500 μL of 20 mM sodium phosphate buffer or 20 mM Tris-HCl, pH 7.5, using 4×15 second pulses of a sonicator cell disrupter, model Some Dismembrator (Fisher Scientific, Hampton, N.J.) at a probe setting of 3. […] The pellet contained <5% of the incorporated sialic acid as determined using a radioactive tracer (data not shown.) The supernatant was therefore considered as the “total homogenate” fraction. A portion (20%) of the “total homogenate” fraction was taken for protein quantification and Sia analysis by DMB derivatization and HPLC analysis (as discussed below.) The remainder was centrifuged at 100,000×g for 1 h. […] All the Sias in these fractions were released with mild acid hydrolysis if necessary and then analyzed by HPLC after DMB derivatization. Protein quantification was performed on the total homogenate, membrane and soluble protein fractions by using the BCA protein assay kit from Pierce (Rockford, Ill.) In some experiments, the resulting data obtained for the Sia bound to the membrane fraction and to the soluble proteins were pooled and presented here as a High Molecular Weight (HMW) fraction. […]

[4] = system: Caco-2 cells; assay: Competition of free Neu5Ac with free Neu5Gc for incorporation; format: cell-based, human; conditions: Caco-2, 3 mM Neu5Gc 3 days, in the presence of 15 mM Neu5Ac
Method: as §1, with “Cells were cultured in the presence of up to 3 mM free Sia or ManNGc for 1 or 3 days at 37° C.” left out
Fractionation of the Labeled Cells—Washed cell pellets were sonicated into 500 μL of 20 mM sodium phosphate buffer or 20 mM Tris-HCl, pH 7.5, using 4×15 second pulses of a sonicator cell disrupter, model Some Dismembrator (Fisher Scientific, Hampton, N.J.) at a probe setting of 3. […] The pellet contained <5% of the incorporated sialic acid as determined using a radioactive tracer (data not shown.) The supernatant was therefore considered as the “total homogenate” fraction. A portion (20%) of the “total homogenate” fraction was taken for protein quantification and Sia analysis by DMB derivatization and HPLC analysis (as discussed below.) The remainder was centrifuged at 100,000×g for 1 h. […] All the Sias in these fractions were released with mild acid hydrolysis if necessary and then analyzed by HPLC after DMB derivatization. […]

[5] = system: chimpanzee lymphoblasts; assay: Neu5Gc/Neu5Ac feeding experiment, chimpanzee lymphoblasts; format: cell-based; conditions: chimpanzee lymphoblasts fed 3 mM for 3 days
[6] = system: Caco-2 cells; assay: Neu5Gc feeding experiment, Neu5Gc in subcellular fractions by DMB-HPLC; format: cell-based, human; conditions: fed 3 mM for 3 days
Method: as §1
Fractionation of the Labeled Cells—Washed cell pellets were sonicated into 500 μL of 20 mM sodium phosphate buffer or 20 mM Tris-HCl, pH 7.5, using 4×15 second pulses of a sonicator cell disrupter, model Some Dismembrator (Fisher Scientific, Hampton, N.J.) at a probe setting of 3. The sonicate was centrifuged at 75×g for 15 min., and the pellet Obtained consisted primarily of nuclei and unbroken cells. The pellet contained <5% of the incorporated sialic acid as determined using a radioactive tracer (data not shown.) The supernatant was therefore considered as the “total homogenate” fraction. A portion (20%) of the “total homogenate” fraction was taken for protein quantification and Sia analysis by DMB derivatization and HPLC analysis (as discussed below.) The remainder was centrifuged at 100,000×g for 1 h. The resulting pellet, called the “membrane” fraction, was then resuspended by sonication (15 sec.) in 200 μl of sodium acetate buffer, pH 5.5. […] All the Sias in these fractions were released with mild acid hydrolysis if necessary and then analyzed by HPLC after DMB derivatization. Protein quantification was performed on the total homogenate, membrane and soluble protein fractions by using the BCA protein assay kit from Pierce (Rockford, Ill.) In some experiments, the resulting data obtained for the Sia bound to the membrane fraction and to the soluble proteins were pooled and presented here as a High Molecular Weight (HMW) fraction. […]

[7] = system: Human neuroblastoma cells; assay: Neu5Gc feeding experiment, neuroblastoma cells; format: cell-based; conditions: fed 3 mM for 3 days
Method: as §1
Fractionation of the Labeled Cells—Washed cell pellets were sonicated into 500 μL of 20 mM sodium phosphate buffer or 20 mM Tris-HCl, pH 7.5, using 4×15 second pulses of a sonicator cell disrupter, model Some Dismembrator (Fisher Scientific, Hampton, N.J.) at a probe setting of 3. […] The pellet contained <5% of the incorporated sialic acid as determined using a radioactive tracer (data not shown.) The supernatant was therefore considered as the “total homogenate” fraction. A portion (20%) of the “total homogenate” fraction was taken for protein quantification and Sia analysis by DMB derivatization and HPLC analysis (as discussed below.) The remainder was centrifuged at 100,000×g for 1 h. […]

[8] = human lymphoblasts fed 3 mM for 3 days
[9] = human normal fibroblasts after 3 mM Neu5Gc feeding, 3 days

## N=C(N)NC(=O)c1nc(Cl)c(N)nc1N [amiloride]
[1]
  Neu5Gc incorporation into membrane-bound glycoconjugates in the presence of inhibitor: 10%

## O=C(CO)N[C@@H]1C(O)O[C@H](CO)[C@@H](O)[C@@H]1O (some centres unmarked) [ManNGc, N-glycolylmannosamine]
[2]
  percent of Neu5Gc in membrane-bound glycoconjugates: 19%

## C[C@@H]1[C@H](O)[C@@H](C)/C=C/C=C/CC/C=C/C=C/C=C/C=C/C(O[C@H]2O[C@H](C)[C@@H](O)[C@H](N)[C@@H]2O)CC2O[C@](O)(CC(O)C(O)CCC(O)CC(O)CC(O)CC(=O)O[C@H]1C)CC(O)C2C(=O)O (some centres unmarked) [nystatin]
[1]
  Neu5Gc incorporation into membrane-bound glycoconjugates in the presence of inhibitor: 44%
  incorporation of Neu5Gc in the TH fraction in the presence of inhibitor: ~65%

## O=c1c(-c2ccc(O)cc2)coc2cc(O)cc(O)c12 [genistein]
[1]
  Neu5Gc incorporation into membrane-bound glycoconjugates in the presence of inhibitor: 34%
  incorporation of Neu5Gc in the TH fraction in the presence of inhibitor: 51%

## CN(C)CCCN1c2ccccc2Sc2ccc(Cl)cc21 [chlorpromazine]
[1]
  Neu5Gc incorporation into membrane-bound glycoconjugates in the presence of inhibitor: 50%

## CC(=O)N[C@H]1[C@H]([C@H](O)[C@H](O)CO)OC(O)(C(=O)O)C[C@@H]1O (some centres unmarked) [Neu5Ac, N-acetylneuraminic acid]
[3]; human lymphoblasts fed 3 mM Neu5Ac for 3 days
  Neu5Gc detected in the cells: almost no detectable Neu5Gc
[4]
  Neu5Gc (percent of total Sia) in the membrane-bound fraction: almost to zero

## O=C(CO)N[C@H]1[C@H]([C@H](O)[C@H](O)CO)OC(O)(C(=O)O)C[C@@H]1O (some centres unmarked) [Neu5Gc, N-glycolylneuraminic acid]
[5]; non-fed baseline 57%
  Neu5Gc (percent of total Sia), TH fraction: 70%
[5]; non-fed baseline 66%
  Neu5Gc (percent of total Sia), HMW fraction: 72%
[5]; non-fed baseline 70%
  Neu5Gc (percent of total Sia), LMW fraction: 84%
[3]; [8]
  Neu5Gc (percent of total Sia), HMW fraction: 51%
  Neu5Gc (percent of total Sia), LMW cytosolic fraction: 80%
  Neu5Gc (percent of total Sia), TH fraction: 67%
[6]
  Neu5Gc (percent of total Sia), cytosolic low molecular weight (LMW) fraction: 70%
  Neu5Gc (percent of total Sia), high molecular weight fraction (HMW): 46%
  Neu5Gc (percent of total Sia), total homogenate (TH): 58%
[7]
  Neu5Gc incorporation efficiency: efficiency comparable to the Caco-2 cells
[2]; [9]
  Neu5Gc (percent of total Sia), HMW fraction: 39%
  Neu5Gc (percent of total Sia), TH fraction: 28%
  Neu5Gc (percent of total Sia), cytosolic LMW fraction: 41%
[2]
  percent of Neu5Gc in membrane-bound glycoconjugates: 37%
